Measurements as given in ChEMBL document CHEMBL1201862, “PubChem BioAssay data set” (2004).
Calls of active or inactive are those of the source.

Experiments:
[1] = target: T1, Delta-type opioid receptor (Homo sapiens, UniProt P41143); assay: HTS Image-Based Screen for Agonists of the DOR Receptor. [Related pubchem assays (depositor defined):AID1777, AID1786, AID2133]; format: functional
[2] = target: T2, Kappa-type opioid receptor (Homo sapiens, UniProt P41145); format: functional
[3] = HepG2 cell cytotoxicity, dose response, cytotoxicity control for Shn3 inhibitor project, CellTiter-Glo, cherry-picked (AID 624134); format: functional, cell-based
[4] = target: Beta-galactosidase (Escherichia coli, UniProt Q8VNN2); format: functional
[5] = target: T3, Protein RecA (Mycobacterium tuberculosis, UniProt P9WHJ3); assay: Fluorescence Cell-Free Homogeneous Dose Retest to Identify Inhibitors of RecA-Intein Splicing Activity. [Related pubchem assays (depositor defined):AID2097, AID2223, AID489010, AID492950]; format: functional
T3 sequence (P9WHJ3 whole entry): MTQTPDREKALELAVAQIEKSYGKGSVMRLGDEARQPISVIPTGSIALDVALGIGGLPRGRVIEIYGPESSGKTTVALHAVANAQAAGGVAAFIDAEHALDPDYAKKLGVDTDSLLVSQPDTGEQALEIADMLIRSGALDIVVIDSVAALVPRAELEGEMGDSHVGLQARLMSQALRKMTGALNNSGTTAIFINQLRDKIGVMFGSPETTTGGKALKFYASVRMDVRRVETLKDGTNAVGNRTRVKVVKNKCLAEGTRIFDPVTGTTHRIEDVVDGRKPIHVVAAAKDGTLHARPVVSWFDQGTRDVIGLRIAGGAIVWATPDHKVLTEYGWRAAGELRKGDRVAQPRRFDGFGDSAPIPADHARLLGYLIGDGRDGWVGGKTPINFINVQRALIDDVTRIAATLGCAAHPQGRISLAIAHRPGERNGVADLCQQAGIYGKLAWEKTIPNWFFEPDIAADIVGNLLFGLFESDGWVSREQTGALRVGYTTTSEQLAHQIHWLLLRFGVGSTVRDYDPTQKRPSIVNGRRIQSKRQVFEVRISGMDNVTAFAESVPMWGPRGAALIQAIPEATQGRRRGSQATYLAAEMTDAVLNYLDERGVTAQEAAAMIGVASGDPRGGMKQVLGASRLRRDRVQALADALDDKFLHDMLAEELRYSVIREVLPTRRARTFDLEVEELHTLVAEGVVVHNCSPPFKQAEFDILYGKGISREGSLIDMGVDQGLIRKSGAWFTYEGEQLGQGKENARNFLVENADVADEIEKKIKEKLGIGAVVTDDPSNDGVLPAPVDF

[6] = Shn3 3'UTR reporter inhibitors, dose response, cell-based, Clone20 osteoblasts, firefly luciferase, cherry-picked (AID 624132); format: functional;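 note: firefly luciferase luminescence from reporter carrying the Shn3 3'UTR in osteoblasts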
[7] = target: Beta Lactamase (Pseudomonas aeruginosa, UniProt Q932Y6); assay: beta-lactamase reporter inhibitor potency, dose response, artefact control for TLR9-MyD88 binding inhibitor project, BLA reporter cells, FRET fluorescence (AID 588341); format: cell-based;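 note: cell based assay in CHO-K1 cells stably expressing beta-lactamase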
Chain of Beta Lactamase (Q932Y6 whole entry): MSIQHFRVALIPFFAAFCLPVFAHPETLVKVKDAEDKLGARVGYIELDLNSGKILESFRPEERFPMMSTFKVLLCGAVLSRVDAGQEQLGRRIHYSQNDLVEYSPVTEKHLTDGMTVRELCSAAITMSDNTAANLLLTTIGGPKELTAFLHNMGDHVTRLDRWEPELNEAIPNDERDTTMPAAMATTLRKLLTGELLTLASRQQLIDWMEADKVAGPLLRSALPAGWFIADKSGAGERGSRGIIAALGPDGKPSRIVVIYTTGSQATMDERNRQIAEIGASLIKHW

[8] = growth suppression of beta-catenin-knockout colon cells, dose response, cell-based, HCT116, human colon tumor (AID 1045); format: functional;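 note: HCT116 colon tumor cells with beta catenin knocked out; cells exposed to compound for 60 hours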
[9] = THP-1 cell cytotoxicity, dose response, cytotoxicity control for non-replicating M. tuberculosis project (AID 489025); format: functional
[10] = test system: BJ; assay: cytotoxicity toward Ras-transformed BJeLR fibroblasts, dose response, cell-based, alamar blue fluorescence, cherrypicked samples (AID 2631); format: functional; conditions: Homo sapiens;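 note: confirmatory dose-response assay in RAS-dependent BJ fibroblasts engineered with TERT, LT and ST, with cytotoxicity read by fluorescence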
[11] = Vero E6 cell cytotoxicity, dose response, cytotoxicity control for non-replicating M. tuberculosis project, secondary assay (AID 492998); format: functional, VeroE6; conditions: Vero C1008
[12] = growth suppression of PTEN-null colon cells, dose response, cell-based, HCT116 PTEN knockout (AID 1047); format: functional;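 note: HCT116 colon tumor cells with PTEN knocked out; cells exposed to compound for 60 hours before readout; potency for loss of cell viability measured by luminescence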
[13] = target: T4, Fatty acid synthase (Homo sapiens, UniProt P49327); assay: FAS thioesterase domain inhibitors, dose response, biochemical, endpoint fluorescence intensity, uHTS hits (AID 624327); format: functional;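 note: fluorescence from hydrolysis of an O-methyl fluorescein acyl ester substrate by the enzyme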
T4 sequence (P49327 whole entry, the tested form may be a part): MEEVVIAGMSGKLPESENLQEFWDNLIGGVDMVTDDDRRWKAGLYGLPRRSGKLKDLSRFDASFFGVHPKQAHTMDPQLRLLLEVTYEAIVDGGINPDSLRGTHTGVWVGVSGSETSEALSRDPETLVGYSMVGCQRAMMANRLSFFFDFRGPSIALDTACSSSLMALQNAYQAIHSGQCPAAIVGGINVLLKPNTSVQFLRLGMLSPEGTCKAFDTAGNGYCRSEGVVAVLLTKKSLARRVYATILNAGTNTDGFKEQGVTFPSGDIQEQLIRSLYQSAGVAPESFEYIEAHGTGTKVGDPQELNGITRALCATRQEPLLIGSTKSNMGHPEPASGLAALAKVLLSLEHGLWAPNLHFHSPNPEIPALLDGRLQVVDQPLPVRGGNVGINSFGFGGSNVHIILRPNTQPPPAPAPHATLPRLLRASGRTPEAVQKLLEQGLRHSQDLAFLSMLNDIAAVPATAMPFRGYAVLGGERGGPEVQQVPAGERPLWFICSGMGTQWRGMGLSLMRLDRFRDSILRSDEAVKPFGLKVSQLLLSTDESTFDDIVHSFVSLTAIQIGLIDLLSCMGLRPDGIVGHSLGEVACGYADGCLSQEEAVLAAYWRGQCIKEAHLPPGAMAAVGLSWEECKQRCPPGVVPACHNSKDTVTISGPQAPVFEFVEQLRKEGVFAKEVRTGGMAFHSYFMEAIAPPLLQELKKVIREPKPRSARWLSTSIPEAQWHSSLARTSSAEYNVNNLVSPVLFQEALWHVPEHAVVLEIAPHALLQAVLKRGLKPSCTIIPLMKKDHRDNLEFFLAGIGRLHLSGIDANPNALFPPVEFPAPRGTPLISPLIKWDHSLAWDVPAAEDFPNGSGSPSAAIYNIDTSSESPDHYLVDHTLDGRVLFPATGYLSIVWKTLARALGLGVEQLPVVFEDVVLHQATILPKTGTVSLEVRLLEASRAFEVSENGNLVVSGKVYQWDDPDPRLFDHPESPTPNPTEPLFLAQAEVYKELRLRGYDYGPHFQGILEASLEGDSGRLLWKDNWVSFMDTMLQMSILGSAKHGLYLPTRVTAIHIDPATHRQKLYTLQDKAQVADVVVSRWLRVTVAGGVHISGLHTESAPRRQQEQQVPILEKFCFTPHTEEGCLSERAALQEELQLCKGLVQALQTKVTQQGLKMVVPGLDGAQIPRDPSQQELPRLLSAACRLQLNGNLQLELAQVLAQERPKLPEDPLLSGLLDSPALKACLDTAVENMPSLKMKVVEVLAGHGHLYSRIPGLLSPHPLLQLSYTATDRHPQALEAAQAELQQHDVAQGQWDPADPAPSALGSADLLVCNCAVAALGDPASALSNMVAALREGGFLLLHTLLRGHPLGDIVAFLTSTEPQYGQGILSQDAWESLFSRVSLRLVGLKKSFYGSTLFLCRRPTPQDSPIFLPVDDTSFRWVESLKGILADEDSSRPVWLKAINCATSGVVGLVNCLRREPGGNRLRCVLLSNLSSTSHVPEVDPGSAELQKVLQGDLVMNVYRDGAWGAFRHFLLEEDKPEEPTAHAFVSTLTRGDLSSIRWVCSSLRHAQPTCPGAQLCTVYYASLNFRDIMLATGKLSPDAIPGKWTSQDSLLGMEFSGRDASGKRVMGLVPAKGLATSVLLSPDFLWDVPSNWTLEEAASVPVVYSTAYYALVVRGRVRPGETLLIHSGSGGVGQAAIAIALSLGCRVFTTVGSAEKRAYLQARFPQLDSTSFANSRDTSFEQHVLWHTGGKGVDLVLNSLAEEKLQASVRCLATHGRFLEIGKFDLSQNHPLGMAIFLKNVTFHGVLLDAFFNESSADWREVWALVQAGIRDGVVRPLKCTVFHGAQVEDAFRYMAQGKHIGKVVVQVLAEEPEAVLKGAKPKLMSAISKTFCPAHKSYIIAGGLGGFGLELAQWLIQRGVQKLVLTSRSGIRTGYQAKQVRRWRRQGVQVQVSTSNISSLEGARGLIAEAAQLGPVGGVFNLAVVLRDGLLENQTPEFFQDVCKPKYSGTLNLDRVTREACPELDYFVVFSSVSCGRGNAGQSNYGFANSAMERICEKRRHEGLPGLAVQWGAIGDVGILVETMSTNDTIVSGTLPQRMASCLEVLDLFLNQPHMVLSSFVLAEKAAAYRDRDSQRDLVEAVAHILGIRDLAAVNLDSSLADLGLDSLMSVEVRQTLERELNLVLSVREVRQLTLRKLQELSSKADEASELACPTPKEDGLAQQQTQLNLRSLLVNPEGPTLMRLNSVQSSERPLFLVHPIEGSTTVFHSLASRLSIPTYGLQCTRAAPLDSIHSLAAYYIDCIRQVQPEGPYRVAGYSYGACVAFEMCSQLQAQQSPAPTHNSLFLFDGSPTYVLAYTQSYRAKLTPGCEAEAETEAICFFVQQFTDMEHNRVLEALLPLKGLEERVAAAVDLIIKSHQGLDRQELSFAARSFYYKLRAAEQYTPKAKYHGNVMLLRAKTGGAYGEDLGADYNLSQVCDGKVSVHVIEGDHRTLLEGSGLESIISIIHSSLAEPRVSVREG

[14] = target: T1, Delta-type opioid receptor; assay: HTS Image-Based Screen for Antagonists of the DOR Receptor. [Related pubchem assays (depositor defined):AID1777, AID1785, AID1786, AID2133]; format: functional
[15] = test system: CHO; assay: cytotoxicity in TLR9-MyD88 CHO cells, dose response, cytotoxicity control for TLR9-MyD88 binding inhibitor project, cell-based, luminescence (AID 588339); format: functional, hamster; conditions: Cricetulus griseus;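 note: CHO cells stably coexpressing TLR9 and MyD88 fusions from primary screen; compound exposure lasted 48 hours before viability readout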
[16] = target: T5, Replicative DNA helicase DnaB (Mycobacterium tuberculosis, UniProt P9WMR3); assay: DnaB intein splicing inhibitors, dose response, biochemical, cell-free fluorescence (AID 449749); format: functional
T5 sequence (P9WMR3 whole entry): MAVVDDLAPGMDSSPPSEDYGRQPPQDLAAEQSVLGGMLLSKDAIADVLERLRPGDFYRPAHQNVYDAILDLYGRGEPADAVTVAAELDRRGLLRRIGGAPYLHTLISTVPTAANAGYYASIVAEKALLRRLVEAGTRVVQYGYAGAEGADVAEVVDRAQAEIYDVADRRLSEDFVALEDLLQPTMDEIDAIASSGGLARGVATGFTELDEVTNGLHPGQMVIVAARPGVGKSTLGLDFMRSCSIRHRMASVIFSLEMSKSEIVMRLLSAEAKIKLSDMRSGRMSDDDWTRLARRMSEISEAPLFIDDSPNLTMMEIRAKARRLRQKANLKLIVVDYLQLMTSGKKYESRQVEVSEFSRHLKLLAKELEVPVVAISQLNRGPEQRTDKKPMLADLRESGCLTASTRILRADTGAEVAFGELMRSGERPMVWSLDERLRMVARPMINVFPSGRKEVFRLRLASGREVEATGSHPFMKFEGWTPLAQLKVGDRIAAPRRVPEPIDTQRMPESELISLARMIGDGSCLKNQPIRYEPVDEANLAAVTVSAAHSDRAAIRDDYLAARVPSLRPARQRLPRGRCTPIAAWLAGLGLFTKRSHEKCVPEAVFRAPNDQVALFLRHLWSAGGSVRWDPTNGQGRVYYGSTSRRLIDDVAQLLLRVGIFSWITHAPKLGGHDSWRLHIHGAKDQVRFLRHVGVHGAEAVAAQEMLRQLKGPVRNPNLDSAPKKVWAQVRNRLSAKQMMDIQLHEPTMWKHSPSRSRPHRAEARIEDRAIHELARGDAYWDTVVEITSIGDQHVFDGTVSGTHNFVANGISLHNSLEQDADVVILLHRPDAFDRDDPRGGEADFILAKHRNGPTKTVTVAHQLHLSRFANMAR

[17] = HepG2 cell cytotoxicity, dose response, cytotoxicity control for non-replicating M. tuberculosis project (AID 489018); format: functional; conditions: Mycobacterium tuberculosis
[18] = target: Bifunctional protein GlmU (Mycobacterium tuberculosis, UniProt P9WMN3); assay: Inhibitors of Mycobacterial Glucosamine-1-phosphate acetyl transferase (GlmU). Secondary screen.; set-up: species or system Mycobacterium tuberculosis H37Rv
Chain of Bifunctional protein GlmU (P9WMN3 whole entry): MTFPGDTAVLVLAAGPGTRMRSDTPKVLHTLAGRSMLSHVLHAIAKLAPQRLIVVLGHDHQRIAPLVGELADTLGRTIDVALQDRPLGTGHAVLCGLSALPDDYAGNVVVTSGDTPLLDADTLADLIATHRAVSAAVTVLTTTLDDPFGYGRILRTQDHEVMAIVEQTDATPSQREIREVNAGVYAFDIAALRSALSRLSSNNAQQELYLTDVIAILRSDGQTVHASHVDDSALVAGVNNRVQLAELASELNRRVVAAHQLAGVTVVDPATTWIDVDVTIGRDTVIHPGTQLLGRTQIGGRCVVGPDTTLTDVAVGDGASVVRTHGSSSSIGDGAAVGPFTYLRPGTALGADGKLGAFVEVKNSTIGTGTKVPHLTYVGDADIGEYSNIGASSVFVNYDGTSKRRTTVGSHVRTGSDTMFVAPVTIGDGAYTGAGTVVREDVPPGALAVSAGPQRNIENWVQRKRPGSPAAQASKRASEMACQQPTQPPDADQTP

[19] = control 3'UTR Renilla luciferase suppression, dose response, counter-screen for Shn3 inhibitor project, cell-based, Clone20-Shn3RL, cherry-picked (AID 624133); format: functional
[20] = target: T2, Kappa-type opioid receptor; format: functional; remark: listed apart in the source
[21] = target: Mu-type opioid receptor (Homo sapiens, UniProt P35372); assay: HTS Image-Based Screen for Agonists of the MOR Receptor. [Related pubchem assays (depositor defined):AID1777, AID1785, AID1786, AID2133]; format: functional;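 note: imaging of beta-arrestin GFP recruitment into spots after receptor activation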
Chain of Mu-type opioid receptor (P35372 whole entry, the tested form may be a part): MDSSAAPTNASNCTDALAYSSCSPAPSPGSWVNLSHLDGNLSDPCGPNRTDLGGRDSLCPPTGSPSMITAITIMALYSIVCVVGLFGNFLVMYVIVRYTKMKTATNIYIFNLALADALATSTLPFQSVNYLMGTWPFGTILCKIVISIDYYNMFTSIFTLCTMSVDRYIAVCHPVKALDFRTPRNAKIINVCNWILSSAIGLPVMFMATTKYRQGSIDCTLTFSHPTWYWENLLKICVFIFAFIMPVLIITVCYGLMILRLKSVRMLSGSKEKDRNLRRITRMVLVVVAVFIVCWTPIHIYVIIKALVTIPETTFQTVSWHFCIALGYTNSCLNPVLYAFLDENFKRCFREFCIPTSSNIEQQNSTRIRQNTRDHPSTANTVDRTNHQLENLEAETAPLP

[22] = target: T4, Fatty acid synthase; assay: FAS thioesterase domain inhibitors, dose response, biochemical, kinetic fluorescence intensity (AID 624326); format: functional;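 note: rate of fluorescence rise from hydrolysis of a fluorogenic O-methyl fluorescein ester substrate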
[23] = cells; format: functional
[24] = target: Potassium voltage-gated channel subfamily KQT member 2 (Rattus norvegicus, UniProt O88943); assay: KCNQ2 channel activators, analog series, SAR follow-up, automated patch clamp, KCNQ2-CHO cells (AID 493113); format: functional
[25] = Luminescence Cell-Based Secondary HTS screen to identify cytotoxic compounds of NIH3T3 cells. [Related pubchem assays: 1885, 1968 ]; format: functional
[26] = cytotoxicity toward NIH3T3 fibroblasts, dose response, counter-screen, cell-based, ATP luminescence, mouse fibroblasts (AID 2010); format: functional;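 note: cells exposed to compound for about 90 hours before reading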
[27] = inhibitors of intracellular T. cruzi replication, confirmation, NIH3T3 host cells, beta-gal luminescence (AID 2044); format: functional, cell-based;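 note: intracellular parasites grown in NIH/3T3 mouse fibroblasts as host cells; luminescent beta-galactosidase reporter signal from transgenic T. cruzi replicating inside host cells; inhibitors lower the luminescence signal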
[28] = inhibitors of Trypanosoma cruzi host-cell infection, confirmation, beta-gal luminescence, NIH3T3 host cells (AID 2630); format: functional, cell-based; conditions: Mus musculus
[29] = Luminescence Cell-Based/Microorganism Confirmation at Dose of Inhibitors of Trypanosoma cruzi Infection. [Related pubchem assays: 1885, 1968 ]; format: functional

T2 sequence (P41145 whole entry): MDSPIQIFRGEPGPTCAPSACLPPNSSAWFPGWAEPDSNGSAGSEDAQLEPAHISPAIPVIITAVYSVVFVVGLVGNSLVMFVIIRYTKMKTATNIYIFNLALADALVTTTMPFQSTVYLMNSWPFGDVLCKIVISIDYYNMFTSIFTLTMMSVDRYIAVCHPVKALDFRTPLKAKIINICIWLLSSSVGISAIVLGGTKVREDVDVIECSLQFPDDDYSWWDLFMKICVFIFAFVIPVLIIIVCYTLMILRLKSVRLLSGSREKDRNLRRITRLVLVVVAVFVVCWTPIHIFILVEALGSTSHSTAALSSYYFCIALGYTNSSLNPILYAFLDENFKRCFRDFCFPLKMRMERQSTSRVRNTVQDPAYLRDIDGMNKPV
T1 sequence (P41143 whole entry): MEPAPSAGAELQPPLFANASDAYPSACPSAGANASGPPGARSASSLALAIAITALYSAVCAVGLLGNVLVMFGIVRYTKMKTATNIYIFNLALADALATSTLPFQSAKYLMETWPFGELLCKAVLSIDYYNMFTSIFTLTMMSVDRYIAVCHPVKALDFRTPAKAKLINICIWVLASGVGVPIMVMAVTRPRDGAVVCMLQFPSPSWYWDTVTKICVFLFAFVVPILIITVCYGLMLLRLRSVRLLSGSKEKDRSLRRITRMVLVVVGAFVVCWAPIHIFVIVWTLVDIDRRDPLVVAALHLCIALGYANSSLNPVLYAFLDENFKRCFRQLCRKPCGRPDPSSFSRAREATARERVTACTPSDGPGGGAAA

CCCC(=O)OCCNc1cc(Sc2nccn2C)c2nonc2c1[N+](=O)[O-]
EC50 [1]: > 32 µM (inactive) | IC50 [2]: 5.47 µM (active) | AC50 [3]: 15.7 µM (active) | EC50 [4]: > 31.5 µM (inactive) | EC50 [5]: 1.27 µM (active) | AC50 [6]: 7.22 µM (active) | IC50 [7]: 8.31 µM (active) | EC50 [8]: 4.63 µM (active) | CC50 [9]: 19.2 µM (active) | EC50 [10]: 2.82 µM (active) | CC50 [11]: 16.6 µM (active) | EC50 [12]: 6.43 µM (active) | IC50 [13]: 5.11 µM (active) | IC50 [14]: > 32 µM (inactive) | IC50 [15]: 3.21 µM (active) | AC50 [16]: 1.14 µM (active) | CC50 [17]: 13.3 µM (active) | IC50 [18]: 136 µM (active) | AC50 [19]: 12.2 µM (active) | IC50 [20]: 30.5 µM | EC50 [21]: > 32 µM (inactive) | IC50 [22]: 2.57 µM (active) | IC50 [23]: 6.13 µM (active)

CCc1ccc(NC(=O)C2CC3CCC2C3)cc1 (centres undefined)
EC50 [24]: 0.92 µM (active)

COC(=O)N/N=C/c1ccc([N+](=O)[O-])o1
EC50 [25]: > 195 µM (not active) | EC50 [26]: > 60 µM (not active) | EC50 [27]: 0.469 µM (active) | EC50 [28]: 0.123 µM (active) | EC50 [29]: 0.123 µM (active)
